Values of other authors, collected in publication PMC12067266 (Proceedings of the National Academy of Sciences of the …, 2025).

tested on: KCa3.1; conditions: read-out: KCa3.1 IC50; ref [21]–[23], [49], [50]

| IC50 | Structure (SMILES) |
| --- | --- |
| 11 nM | NC(=O)C(c1ccccc1)(c1ccc(F)cc1)c1ccc(F)cc1 [Senicapoc] |
| 9 nM | O=C1CSc2ccccc2N1Cc1cccc(C(F)(F)F)c1 [NS6180] |

| Structure (SMILES) | IC50 |
| --- | --- |
| Clc1ccccc1C(c1ccccc1)(c1ccccc1)n1cccn1 [TRAM-34] | […] |
